# Laboratory results published in patent publication US9938292B2 (GUANGDONG ZHONGSHENG PHARMACEUTICAL CO., LTD, priority 2014, dated 2018).
# System: Hedgehog signaling pathway
# Test: Gli-Luc luciferase reporter gene assay in C3H10T1/2/Gli-Luc cells under Shh-N stimulation
# Type: cell-based
# Conditions: Mus musculus, C3H 10T1/2, 24 h, luciferase RLU, read-out: biological activity: IC50 of the inhibitory activities of compounds on the hedgehog pathway
# Text: The luciferase (Gli-Luc) reporter gene with Gli response element was transfected into C3H10T1/2 cells, under Shh-N stimulation conditions, determine the Hedgehog signaling pathway inhibitors through the detection of gene expression in cell activity report. In this study, we evaluated the inhibitory effects of compounds on Hedgehog signaling pathway in the IC50 value of the compound as an index.
# Cell lines: C3H10T1/2/Gli-Luc stable cell line • C3H10T1/2/Gli-Luc Cell culture medium (DMEM/high glucose HyClone, #SH30022.01B; 10% serum Hyclone, #SV30087; 0.4% Hygromycin B Roche, #13398200) • 0.25% Trypsin-EDTA (Gibco, #25200)
# Shh-N, HEK293/SHH-N stable cell culture supernatant
# Inoculate the logarithmic growth phase of C3H10T1/2/Gli-Luc cells into a 96-well culture plate with 20000 cells per well, cells were cultured in a 37° C., 5% CO2 incubator overnight. The next day, the compounds were diluted in the following ways: the positive compound GDC0449 (1 mM) and the compounds (1 mM) to be measured were serially diluted to 7 concentrations by DMSO according to 1:3 and 1:10 respectively, the eighth is for DMSO control, and then diluted with fresh medium 100 times. The medium of the cells cultured overnight was removed, 80 μL fresh culture medium was added per well, then 20 μL gradiently diluted positive compound and compounds to be measured and 100 μL 30 nM Shh-N containing conditioned medium were added, each concentration repeated 2 wells, at the same time, positive and negative reference well were set (i.e. Shh Ctrl: 80 μL fresh medium+20 μL 1% DMSO containing medium+100 μL 30 nM Shh-N containing conditioned medium; Unstimulated Ctrl: 180 μL fresh medium+20 μL 1% DMSO containing medium), cells were cultured in the incubator for further 24 h.
# Intracellular luciferase activity detection: take the cells out of 96-well plate, discard the culture medium, the cells were washed with PBS twice, then each well added with 20 μL lysate (Promega E1531), oscillate pyrolysis at room temperature for 30 min. 5 μL cell lysates were transferred to 384-well plate (Greiner 781074), then each well was added with 25 μL luciferase reaction liquid (Promega E1501), after rapid mixed, immediately placed into the VarioSkan Flash multi-function reading instrument to read the relative light units (RLU) value.
# Data analysis: using Prism's GraphPad 5 for data analysis. RLU reading to the logarithmic mapping of compound concentration on behalf of luciferase activity, and then curve fitting using the following equation to give IC50 value, Y (RLU)=minimum+(maximum−minimum)/(1+10^(log of compound concentration−Log IC50)).
row,SMILES,IC50
1,"CC(C)(O)c1ccc(N2CCC3(CC2)CCN(c2cnc4c(-c5ccc(C#N)cc5)cccc4c2C2CC2)CC3)nc1 [Embodiment 256, 4-(4-cyclopropyl-3-(9-(5-(2-hydroxypropan-2-yl)pyridin-2-yl)-3,9-diazaspiro[5.5]undecan-3-yl)quinolin-8-yl)benzonitrile]",100 to 500 nM
2,"COc1c(-c2ccc(N3C[C@@H](C)O[C@@H](C)C3)cc2)cnc2c(-c3ccc(C#N)cc3)cc(Cl)cc12 [Embodiment 135, 4-(6-chloro-3-(4-((2S,6R)-2,6-dimethylmorpholino)phenyl)-4-methoxyquinolin-8-yl) benzonitrile]",100 to 500 nM
3,COc1c(-c2ccc(N3C[C@@H](C)N(C(=O)CN)[C@@H](C)C3)nc2)cnc2c(-c3ccc(C#N)cc3)cccc12 [Embodiment 198],50 to 100 nM
4,COc1c(N2CCN(C(=O)Nc3cccc(C)c3)CC2)cnc2c(-c3ccc(C#N)cc3)cccc12 [Embodiment 211],≤ 50 nM
5,"C[C@@H]1CN(c2ccc(-c3cnc4c(-c5ccccn5)cccc4c3C3CC3)cc2)C[C@H](C)O1 [Embodiment 263, (2S,6R)-4-(5-(4-8-cyclopropyl-(2-pyridinyl)quinolin-3-yl)pyridin-2-yl)-2,6-dimethylmorpholine]",≤ 50 nM
6,Cc1cn(-c2ccc(N3CCOC(CN(C)C)C3)cc2)c(=O)c2cccc(-c3ccc(C#N)cc3)c12 (stereo not shown) [Embodiment 9],1000 to 5000 nM
7,COC(=O)N1[C@H](C)CN(c2ccc(-c3cnc4c(-c5ccc(C#N)cc5)cccc4c3OC)cc2)C[C@@H]1C [Embodiment 182],≤ 50 nM
8,Cc1cn(-c2ccc(N3C[C@@H](C)O[C@@H](C)C3)cc2)c(=O)c2cccc(-c3ccc(C#N)cn3)c12 [Embodiment 55],1000 to 5000 nM
9,Cc1cc(-c2cccc3c(=O)n(-c4ccc(N5C[C@@H](C)O[C@@H](C)C5)cc4)cc(C)c23)ccc1C#N [Embodiment 61],100 to 500 nM
10,COc1c(-c2ccc(N3C[C@@H](C)N(C(=O)c4ccncc4)[C@@H](C)C3)cc2)cnc2c(-c3ccc(C#N)cc3)cccc12 [Embodiment 201],≤ 50 nM
11,COc1c(-c2ccc(N3C[C@@H](C)O[C@@H](C)C3)c(Cl)c2)cnc2c(-c3ccc(C#N)cc3)cccc12 [Embodiment 173],100 to 500 nM
12,"COc1c(N2CCC(O)(c3ccc(C(C)(C)O)cn3)CC2)cnc2c(-c3ccc(C#N)cc3)cccc12 [Embodiment 238, 4-(3-(4-hydroxy-4-(5-(2-hydroxypropan-2-yl)pyridin-2-yl)piperidin-1-yl)-4-methoxyquinolin-8-yl)benzonitrile]",≤ 50 nM
13,"CC(=O)Nc1c(-c2ccc(N3C[C@@H](C)O[C@@H](C)C3)cc2)cnc2c(-c3ccc(C#N)cc3)cccc12 [Embodiment 129, N-(8-(4-cyanophenyl)-3-(4-((2S,6R)-2,6-dimethylmorpholino)phenyl)quinolin-4-yl) acetamide]",50 to 100 nM
14,"COc1cc(-c2ccc(N3C[C@@H](C)O[C@@H](C)C3)cc2)nc2cccc(-c3ccc(C#N)cc3)c12 [Embodiment 142, 4-(2-(4-((2R,6S)-2,6-dimethylmorpholino)phenyl)-4-methoxyquinolin-5-yl) benzonitrile]",500 to 1000 nM
15,COc1c(-c2ccc(N3C[C@@H](C)O[C@@H](C)C3)cc2)cnc2c(-c3ccc(C#N)cc3F)cccc12 [Embodiment 104],≤ 50 nM
16,"COc1c(-c2csc(N3C[C@@H](C)O[C@@H](C)C3)n2)cnc2c(-c3ccc(C#N)cc3)cccc12 [Embodiment 179, 4-(3-(2-(2,6-dimethylmorpholin-4-yl)thiazol-4-yl)-4-methoxyquinolin-8-yl) benzonitrile]",500 to 1000 nM
17,COC(=O)N1[C@H](C)CN(c2ccc(-n3cc(C)c4c(-c5ccc(C#N)cc5)cccc4c3=O)cc2)C[C@H]1C [Embodiment 19],100 to 500 nM
18,"C[C@@H]1CN(c2ccc(NC(=O)c3cnc4c(-c5ccc(C#N)cc5)cccc4c3C3CC3)cn2)C[C@H](C)O1 [Embodiment 244, 8-(4-cyanophenyl)-4-cyclopropyl-N-(6-((2S,6R)-2,6-dimethylmorpholino)pyridin-3-yl) quinoline-3-carboxamide]",≤ 50 nM
19,"COc1c(C(=O)Nc2ccc(N3C[C@@H](C)O[C@@H](C)C3)nc2)cnc2c(-c3ccc(C#N)cc3)cccc12 [Embodiment 243, 8-(4-cyanophenyl)-N-(6-((2S,6R)-2,6-dimethylmorpholino)pyridin-3-yl)-4-methoxyquinoline-3-carboxamide]",≤ 50 nM
20,Cc1cn(-c2ccc(N3CC(C)N(C(=O)OC(C)(C)C)C(C)C3)cc2)c(=O)c2cccc(-c3ccc(C#N)cc3)c12 (stereo not shown) [Embodiment 16],100 to 500 nM

row,SMILES,IC50
1,"COc1c(N2CCn3c(nnc3C(F)(F)F)C2)cnc2c(-c3ccc(C#N)cc3)cccc12 [Embodiment 247, 4-(4-methoxy-3-(3-trifluoromethyl-5,6-dihydro-8H-[1,2,4]triazolo[4,3-a]pyrazin-7-yl)quinolin-8-yl)benzonitrile]",100 to 500 nM
2,COc1c(-c2ccc(N3C[C@@H](C)O[C@@H](C)C3)cc2)cnc2c(-c3ccc(Cl)nc3)cccc12 [Embodiment 95],≤ 50 nM
3,Cc1cn(-c2ccc(N3C[C@@H](C)O[C@@H](C)C3)cc2)c(=O)c2cccc(-c3ccc(F)cc3)c12 [Embodiment 50],500 to 1000 nM
4,"C[C@@H]1CN(c2ccc(-c3cnc4c(-c5ccc(OC(F)(F)F)cc5)cccc4c3C3CC3)cn2)C[C@H](C)O1 [Embodiment 265, (2S,6R)-4-(5-(4-cyclopropyl-8-(4-(trifluoromethoxy)phenyl)quinolin-3-yl)pyridin-2-yl)-2,6-dimethylmorpholine]",50 to 100 nM
5,"Cc1cn(-c2ccc(N3C[C@H](C)C[C@@H](C)C3)cc2)c(=O)c2cccc(-c3ccc(C#N)cc3)c12 [Embodiment 1, 4-(2-(4-((3R,5R)-3,5-dimethylpiperidin-1-yl)phenyl)-4-methyl-1-oxo-1,2-dihydroisoquinolin-5-yl)benzonitrile]",100 to 500 nM
6,Cc1cn(-c2ccc(N3C[C@@H](C)O[C@@H](C)C3)cc2)c(=O)c2cccc(-c3ccncc3)c12 [Embodiment 49],500 to 1000 nM
7,COc1c(-c2ccc(N3C[C@@H](C)N(C(=O)C(C)(C)O)[C@@H](C)C3)cc2)cnc2c(-c3ccc(C#N)cc3)cccc12 [Embodiment 185],100 to 500 nM
8,CCC(=O)N1CCN(c2ccc(-n3cc(C)c4c(-c5ccc(C#N)cc5)cccc4c3=O)cc2)CC1C (stereo not shown) [Embodiment 17],50 to 100 nM
9,CCN1C(C)CN(c2ccc(-n3cc(C)c4c(-c5ccc(C#N)cc5)cccc4c3=O)cc2)CC1C (stereo not shown) [Embodiment 34],100 to 500 nM
10,C[C@@H]1CN(c2ccc(-c3cnc4c(-c5ccc(C#N)cc5)cccc4c3C#N)cc2)C[C@H](C)O1 [Embodiment 124],50 to 100 nM
11,C[C@@H]1CN(c2ccc(-n3ccc4c(-c5ccc(C#N)cc5)cccc4c3=O)cc2)C[C@H](C)O1 [Embodiment 73],500 to 1000 nM
12,"CC1CN(c2ccc(N3C[C@@H](C)O[C@@H](C)C3)cc2)C(=O)c2cccc(-c3ccc(C#N)cc3)c21 (stereo partly drawn) [Embodiment 87, 4-(2-(4-((2S,6R)-2,6-dimethylmorpholino)phenyl)-4-methyl-1-oxo-1,2,3,4-tetrahydroisoquinolin-5-yl)benzonitrile]",100 to 500 nM
13,C[C@@H]1CN(c2ccc(-n3ccc4c(-c5ccc(C(F)(F)F)cc5)cccc4c3=O)cc2)C[C@H](C)O1 [Embodiment 74],1000 to 5000 nM
14,Cc1cn(-c2ccc(N3C[C@@H](C)O[C@@H](C)C3)cc2)c(=O)c2cccc(-c3ccccc3C#N)c12 [Embodiment 64],500 to 1000 nM
15,"CC(C)c1ccc(N2CCN(c3cnc4c(-c5ccc(C#N)cc5)cccc4c3C3CC3)CC2)nc1 [Embodiment 261, 4-(4-((4-cyclopropyl-35-isopropylpyridin-2-yl)-3-)-quinolin-8-yl)benzonitrile]",100 to 500 nM
16,C[C@@H]1CN(c2ccc(-c3cnc4c(-c5ccc(C#N)cc5)cccc4c3OCCN(C)C)cc2)C[C@H](C)O1 [Embodiment 146],500 to 1000 nM
17,Cc1cn(-c2ccc(N3CCN4CCC[C@H]4C3)cc2)c(=O)c2cccc(-c3ccc(C#N)cc3)c12 [Embodiment 10],100 to 500 nM
18,COc1c(-c2ccc(N3C[C@@H](C)O[C@@H](C)C3)cc2)cnc2c(-c3ccc(C)nc3)cccc12 [Embodiment 94],≤ 50 nM
19,C[C@@H]1CN(c2ccc(-c3cnc4c(-c5ccc(C#N)cc5)cccc4c3OC(F)F)cc2)C[C@H](C)O1 [Embodiment 145],≤ 50 nM
20,"COc1c(-c2ccc(N3C[C@@H](C)O[C@@H](C)C3)cc2)cnc2c(C3CCC(C#N)CC3)cccc12 (stereo partly drawn) [Embodiment 116, 4-(3-(4-((2S,6R)-2,6-dimethylmorpholino)phenyl)-4-methoxyquinolin-8-yl) cyclohexane carbonitrile]",100 to 500 nM
